Measurements reported in publication PMC8745314, “Novel Tetrazole-Based Antimicrobial Agents Targeting Clinical Bacteria Strains: Exploring the Inhibition of Staphylococcus aureus DNA Topoisomerase IV and Gyrase” (International Journal of Molecular Sciences, 2021).
In brackets after ≈: the same amount, converted by molar mass.

What was measured:
[1] = tested on: S. aureus ATCC 25923; experiment: MIC broth microdilution, standard strain; type: cell-based; details: Staphylococcus aureus, ATCC25923; S. aureus ATCC 25923, standard strain, 19 h at 35 °C; read-out: minimal inhibitory concentration (MIC)
Method: (§1) All synthesized compounds were tested in vitro against a set of bacteria, including representative standard Gram-positive and Gram-negative rods. Compounds were screened for their minimal inhibitory concentrations (MICs). […] These three compounds were also found to be good inhibitors of the growth of Gram-negative rods: […] The antimicrobial assays were conducted using reference strains of bacteria derived from international microbe collections: American Type Culture Collection (ATCC) and National Collection of Type Culture (NCTC). The following standard strains of bacteria were used: Gram-positive-Staphylococcus aureus NCTC 4163, Staphylococcus aureus ATCC 25923, Staphylococcus aureus ATCC 6538, Staphylococcus aureus ATCC 29213, Staphylococcus epidermidis ATCC 12228, Staphylococcus epidermidis ATCC 35984, Gram-negative: Escherichia coli ATCC 25922, Pseudomonas aeruginosa ATCC 15442. Clinical strains of bacteria used in this study: Gram-positive: Staphylococcus epidermidis 5253, Staphylococcus epidermidis 4243, Staphylococcus aureus […], Staphylococcus aureus […] and Gram-negative: Escherichia coli 520, Escherichia coli 600, Klebsiella pneumoniae 510 and Pseudomonas aeruginosa 659 were obtained from the collection of the Department of Pharmaceutical Microbiology, Medical University of Warsaw, Poland and they were isolated from different biological materials taken from the patients hospitalized in the Warsaw Medical University hospitals. Antimicrobial activity was examined by the minimal inhibitory concentration (MIC) method under standard procedures provided by CLSI with some modifications. MIC was determined by the two-fold serial broth microdilution method in 96-well microtitration plates using Mueller-Hinton II broth medium (Becton Dickinson, Franklin Lakes, NJ, USA). The final inoculum of all studied bacteria was 10^6 CFU/mL (colony forming unit per milliliter). The stock solution of tested compounds was prepared in dimethyl sulfoxide (DMSO) and diluted to a maximum of 1% of solvent content with a sterile medium.

[2] = tested on: P. aeruginosa ATCC 15442; experiment: MIC broth microdilution, standard strain; type: cell-based; details: Pseudomonas aeruginosa, ATCC15442; P. aeruginosa ATCC 15442, standard strain, 19 h at 35 °C; read-out: minimal inhibitory concentration (MIC)
Method: as §1

[3] = tested on: E. coli ATCC 25922; experiment: MIC broth microdilution, standard strain; type: cell-based; details: Escherichia coli, ATCC25922; E. coli ATCC 25922, standard strain, 19 h at 35 °C; read-out: minimal inhibitory concentration (MIC)
Method: as §1

[4] = tested on: S. aureus NCTC 4163; experiment: MIC broth microdilution, standard strain; type: cell-based; details: Staphylococcus aureus, NCTC4163; S. aureus NCTC 4163, standard strain, 19 h at 35 °C; read-out: minimal inhibitory concentration (MIC)
Method: as §1

[5] = biological target: S. aureus topoisomerase IV (Staphylococcus aureus, UniProt P0C1S7+P0C1U9); experiment: Topoisomerase IV decatenation assay; type: biochemical; details: decatenation of kinetoplast DNA, read-out: IC50 ± S.E.M. for Topoisomerase IV (converted)
Method: Description related to conducted biological studies including cell culture, suitable conditions, and methodology was presented in our previous paper.
Figure 1 The effect of tested compounds on S. aureus topoisomerase IV activity. Decreasing amounts of 1, 2, or 3 were incubated with 200 ng kinetoplast DNA and run-on agarose gel. Lane: 1–5: compound 3 at concentrations 64, 32, 8, 2, 0.5 μg/mL, respectively. Lane: 6–10: compound 2 at concentrations 64, 32, 8, 2, 0.5 μg/mL, respectively. Lane: 11–15: compound 1 at concentrations 64, 32, 8, 2, 0.5 μg/mL, respectively.

[6] = tested on: S. epidermidis ATCC 12228; experiment: MIC broth microdilution, standard strain; type: cell-based; details: Staphylococcus epidermidis, ATCC12228; S. epidermidis ATCC 12228, standard strain, 19 h at 35 °C; read-out: minimal inhibitory concentration (MIC)
Method: (§2) All synthesized compounds were tested in vitro against a set of bacteria, including representative standard Gram-positive and Gram-negative rods. Compounds were screened for their minimal inhibitory concentrations (MICs). […] The antimicrobial assays were conducted using reference strains of bacteria derived from international microbe collections: American Type Culture Collection (ATCC) and National Collection of Type Culture (NCTC). The following standard strains of bacteria were used: Gram-positive-Staphylococcus aureus NCTC 4163, Staphylococcus aureus ATCC 25923, Staphylococcus aureus ATCC 6538, Staphylococcus aureus ATCC 29213, Staphylococcus epidermidis ATCC 12228, Staphylococcus epidermidis ATCC 35984, Gram-negative: Escherichia coli ATCC 25922, Pseudomonas aeruginosa ATCC 15442. Clinical strains of bacteria used in this study: Gram-positive: Staphylococcus epidermidis 5253, Staphylococcus epidermidis 4243, Staphylococcus aureus […], Staphylococcus aureus […] and Gram-negative: Escherichia coli 520, Escherichia coli 600, Klebsiella pneumoniae 510 and Pseudomonas aeruginosa 659 were obtained from the collection of the Department of Pharmaceutical Microbiology, Medical University of Warsaw, Poland and they were isolated from different biological materials taken from the patients hospitalized in the Warsaw Medical University hospitals. […] MIC was determined by the two-fold serial broth microdilution method in 96-well microtitration plates using Mueller-Hinton II broth medium (Becton Dickinson, Franklin Lakes, NJ, USA). The final inoculum of all studied bacteria was 10^6 CFU/mL (colony forming unit per milliliter). The stock solution of tested compounds was prepared in dimethyl sulfoxide (DMSO) and diluted to a maximum of 1% of solvent content with a sterile medium.

[7] = tested on: S. aureus ATCC 6538; experiment: MIC broth microdilution, standard strain; type: cell-based; details: Staphylococcus aureus, ATCC6538; S. aureus ATCC 6538, standard strain, 19 h at 35 °C; read-out: minimal inhibitory concentration (MIC)
Method: as §2

[8] = tested on: S. aureus ATCC 29213; experiment: MIC broth microdilution, standard strain; type: cell-based; details: Staphylococcus aureus, ATCC29213; S. aureus ATCC 29213, standard strain, 19 h at 35 °C; read-out: minimal inhibitory concentration (MIC)
Method: as §2

[9] = tested on: S. epidermidis ATCC 35984; experiment: MIC broth microdilution, standard strain; type: cell-based; details: Staphylococcus epidermidis, ATCC35984; S. epidermidis ATCC 35984, standard strain, 19 h at 35 °C; read-out: minimal inhibitory concentration (MIC)
Method: as §2

Row | MIC [1] | MIC [2] | MIC [3] | MIC [4] | MIC [6] | MIC [7] | MIC [8] | MIC [9] | SMILES | IC50 [5]
1 | 128 mg/L (≈ 326 µM) | > 256 mg/L | > 256 mg/L | 128 mg/L (≈ 326 µM) | 256 mg/L (≈ 652 µM) | 128 mg/L (≈ 326 µM) | 128 mg/L (≈ 326 µM) | 128 mg/L (≈ 326 µM) | CC(C)C12C=CC(C)(CC1)C1C(=O)N(Nc3nnnn3-c3ccccc3)C(=O)C12 (centres unmarked) [Compound 11, 4-Isopropyl-7-methyl-2-((1-phenyl-1H-tetrazol-5-yl)amino)-3a,4,7,7a-tetrahydro-1H-4,7-ethanoisoindole-1,3(2H)-dione] | –
2 | 32 mg/L (≈ 75 µM) | > 256 mg/L | 128 mg/L (≈ 300 µM) | 32 mg/L (≈ 75 µM) | 128 mg/L (≈ 300 µM) | 32 mg/L (≈ 75 µM) | 64 mg/L (≈ 150 µM) | 32 mg/L (≈ 75 µM) | CC(C)C12C=CC(C)(CC1)C1C(=O)N(Nc3nnnn3-c3ccccc3Cl)C(=O)C12 (centres unmarked) [Compound 7, 2-((1-(2-Chlorophenyl)-1H-tetrazol-5-yl)amino)-4-isopropyl-7-methyl-3a,4,7,7a-tetrahydro-1H-4,7-ethanoisoindole-1,3(2H)-dione] | –

Further lines, the molecule ahead of its results:

Row | SMILES | MIC [1] | MIC [2] | MIC [3] | MIC [4] | MIC [6] | MIC [7] | MIC [8] | MIC [9] | IC50 [5]
3 | O=C(O)c1cn(C2CC2)c2cc(N3CCNCC3)c(F)cc2c1=O [Ciprofloxacin, reference compound] | 0.5 mg/L (≈ 1.51 µM) | 0.125 mg/L (≈ 0.377 µM) | 0.015 mg/L (≈ 0.0453 µM) | 0.125 mg/L (≈ 0.377 µM) | – | – | – | – | –
4 | COc1c(N2C[C@@H]3CCCN[C@@H]3C2)c(F)cc2c(=O)c(C(=O)O)cn(C3CC3)c12 [Moxifloxacin, reference compound] | – | – | – | – | – | – | – | – | 2.24 µM
5 | CC1=C(C)C2(C)CC1(C)C1C(=O)N(Nc3nnnn3-c3ccc(C)cc3)C(=O)C12 (centres unmarked) [Compound 5, 4,5,6,7-Tetramethyl-2-((1-(p-tolyl)-1H-tetrazol-5-yl)amino)-3a,4,7,7a-tetrahydro-1H-4,7-methanoisoindole-1,3(2H)-dione] | > 256 mg/L | > 256 mg/L | > 256 mg/L | > 256 mg/L | > 256 mg/L | > 256 mg/L | > 256 mg/L | > 256 mg/L | –
